Reference: patent publication US9234176B2, “Chemically defined production of cardiomyocytes from pluripotent stem cells” (The Board of Trustees of the Leland Stanford Junior …, priority 2012, dated 2016)

Legend:
[1] = test system: hPSC; assay: Directed cardiac differentiation of hPSC in minimal media (Example 1); format: cell-based, human; details: for inducing cardiac differentiation (GSK-3β inhibitors, Wnt signaling agonists): BIO 2-5 μM, CHIR-99021 4-10 μM; for Wnt signaling antagonist effective for cardiac differentiation: at a concentration of 5 μM
Experimental: Directed Cardiac Differentiation Procedure. (volumes provided are for a T25 flask; adjust volumes proportionately for larger vessels) Day 0 (day 4 after passage): Aspirate medium, and replace with 5 mL of minimal media (CDM3, D3, D4, or D11) supplemented with 6 uM of CHIR-99021 (CHIR-99021 can be used at 4-15 μM). Place flasks in a regular ambient O2, 5% CO2 incubator. Day 2: 48 h. Aspirate media and replace with 5 mL of minimal media (CDM3, D3, D4, or D11). Day 3: 72 h. Aspirate media and replace with 5 mL of minimal media (CDM3, D3, D4, or D11) supplemented with 0.5 uM C59 (C59 may be used at 0.5-5 μM). Day 5: Aspirate media and replace with 5 mL of minimal media (CDM3, D3, D4, or D11). From day 5 onwards media should be changed every 2 days with minimal media (CDM3, D3, D4, or D11).
From day 0 to day 2 (d0-d2), minimal media (CDM3, D3, D4, or D11) was supplemented with the Wnt signaling agonist CHIR-99021 (6-10 uM 48 h, d0-d2), which triggers canonical Wnt/β-Catenin signaling that leads to the subsequent up-regulation of BMP4 and activin A. Media is then exchanged to non-supplemented minimal media (CDM3, D3, D4, or D11) for 1 day followed by contact with a Wnt signaling antagonist (e.g., C59: 0.5-5 uM, 48 h, d3-d5) for 2 days. At day 5, 7, and 9 minimal media (CDM3, D3, D4, or D11) is exchanged for fresh media, and contraction begins between d7 and d10. At day 11, media is exchanged to a variant of minimal media (CDM3, D3, D4, or D11) without […] that results in the depletion of non-cardiomyocytes due to a lack of glycogen stores. Media was exchanged on day 13 for fresh media lacking glucose. At day 15, media was exchanged for fresh minimal media (CDM3, D3, D4, or D11) (containing glucose).
The presence of cardiomyocytes was verified in a number of different ways, for example: flow cytometry of cells contacted with an antibody specific for a cardiomyocyte marker (TNNT2); imaging of cells stained with antibodies specific for α-Sarcomeric actin (red) and Troponin T (TNNT2); electrophysiological profiling; and evaluating responsiveness to known cardioactive drugs (e.g., Norepinephrine). Assays performed on multiple different cell lines (including several hESC lines and over 30 hiPSC lines) confirmed that the subject methods are highly consistent and highly efficient, as very little variability was observed among the different cell lines.

[2] = test system: hiPSC; assay: Analysis of components of defined media for hiPSC cardiac differentiation (contraction score); format: cell-based, human; set-up: 9 components subtracting: cardiac differentiation score / 2 components subtracting: cardiac differentiation score: scale not given here
Excerpt: Development of a Chemically Defined Cardiac Differentiation Platform. We first generated eleven pluripotent hiPSC lines under chemically defined conditions (FIG. 7) on a chemically synthesized vitronectin peptide substrate, with nonenzymatic passaging (FIG. 8). […] To formulate a chemically defined differentiation protocol, we concentrated on the observation that three unrelated media formations are capable of supporting growth factor-based monolayer cardiac differentiation: RPMI+B27-ins, supplemented StemPro-34, and LI-APEL (Table 5). […] Beginning with the 21 components of B27, we subtracted one component at a time and assessed for continued high efficiency differentiation (Table 6a-c) and also assessed components from two other two media (supplemented StemPro-34 and LI-APEL) that yielded benefits (Table 6d-f). We concluded that hiPSC cardiac differentiation was successful in a media consisting of […]: RPMI 1640 basal medium, L-ascorbic acid 2-phosphate (AA 2-P), and BSA (Table 6g).
Other additions to cardiac differentiation media tested were 10.7 μg/mL recombinant human transferrin, […], 1 μg/mL linoleic acid, 1 μg/mL linolenic acid, 2 ng/mL triiodo-l-thyronine, 2 μg/mL L-carnitine, 1 μg/mL D,L-alpha-tocopherol acetate, 100 ng/mL retinol acetate, 1 μg/mL ethanolamine, 20 ng/mL corticosterone, 9 ng/mL progesterone, 47 ng/mL lipoic acid, 100 ng/mL retinol, 1 μg/mL D,L-alpha-tocopherol, 100 ng/mL biotin, 2.5 ug/mL catalase, 2.5 μg/mL glutathione, 2.5 μg/mL superoxide dismutase, 2 μg/mL L-carnitine, 15 μg/mL D(+)-galactose, 16.1 μg/mL putrescine, 450 μM 1-thioglycerol, 55 μM 2-mercaptoethanol, 64 μg/mL L-ascorbic acid 2-phosphate (all from Sigma-Aldrich).

[3] = test system: hiPSCs; assay: Cardiac differentiation of hiPSCs in CDM3, optimisation of media and small molecules (TNNT2 flow cytometry); format: cell-based; details: for cell death / toxicity of GSK3B inhibitors: in CDM3, FIG. 10g; for inducing cardiac differentiation (GSK3B inhibitors): in CDM3, FIG. 10g-h; for timing of Wnt signaling modulation for cardiac differentiation efficiency: CHIR99021 for 2 days followed by Wnt-C59 for 2 days, in CDM3
Experimental: Cardiac differentiation of hiPSCs. hiPSCs and hESCs (>p20) were split at 1:10 or 1:12 ratios using EDTA as above and grown for 4 days at which time they reached ˜85% confluence. Media was changed to CDM3, consisting of RPMI 1640 (11875, Life Technologies), 495 μg/mL Oryza sativa-derived recombinant human albumin (A0237, Sigma-Aldrich, 75 mg/mL stock solution in dH2O, stored at −20° C.), 213 μg/mL L-ascorbic acid 2-phosphate (Sigma-Aldrich, 64 mg/mL stock solution in dH2O, stored at −20° C.). Media was changed every other day (48 h). For d0-d2, media was supplemented with 6 μM CHIR99021 (LC Laboratories, Woburn, Mass., USA). On d2, media was change to CDM3 supplemented with […] Wnt-C59 (Cellagentech, San Diego, Calif., USA). Media was changed on d4 and every other day for CDM3.
Wnt inhibitors assessed were IWP-2, IWR-1 (Sigma-Aldrich), XAV-939, ICG-001 (Selleck Chemicals), IWP-4 (Stemgent, Cambridge, Mass., USA), and Wnt-C59 (Cellagentech). GSK3B inhibitors assessed were CHIR99021 (LC Laboratories), BIO, TWS119 (Selleck Chemicals), 1-azenkenpaullone, TDZD-8, ARA014418, and 3F8 (all Sigma-Aldrich). Inhibitors used for pathway analysis were PD173074, SB203580, LDN193189, SB431542 (all Selleck Chemicals), SU5402, Dorsomorphin, A83-01 (Tocris, Bristol, UK), ALK5 inhibitor (Stemgent), and ITD-1 (Xcessbio, San Diego, Calif., USA). All small molecules were re-suspended to 10 mM in dimethyl sulfoxide (DMSO).
Flow cytometry. For optimization of cardiac differentiation conditions, cells were cultured in 12-well plates. For analysis of cardiomyocyte differentiation efficacy and subtype specification, expression of TNNT2, MLC2A and MLC2V was analyzed by flow cytometry. At d14-15 of differentiation, the entire well was dissociated with TrypLE Express for 10 min at 37° C. and transferred to flow cytometry tubes (BD Biosciences). Cells were then fixed with 1% PFA for 15 min, permeabilized with 90% methanol for 15 min and stained using 1:200 mouse monoclonal IgG1 TNNT2 (13-11, Thermo Scientific), 1:400 mouse monoclonal IgG2b MLC2A (MYL7, Synaptic Systems) and 1:200 rabbit polyclonal IgG MLC2V (MYL2, ProteinTech) for 45 min at RT. Secondary staining was performed with 1:1000 Alexa Fluor 488 goat anti-mouse IgG1, 1:1000 Alexa Fluor 488 goat anti-rabbit IgG (H+L), 1:1000 Alexa Fluor 647 goat anti-mouse IgG2b and 1:1000 Alexa Fluor 647 goat anti-rabbit IgG (H+L) secondary antibodies for 20 min. […] Cells were analyzed using a FACSAria II (BD Biosciences) with a […] and FACSDiva software. Data were analyzed using FlowJo 8.7 (Tree Star).

[4] = test system: hiPSC; assay: Defined matrices: pluripotent growth and cardiac differentiation of hiPSC; format: cell-based, human
Excerpt: Determination that Laminin-Based Matrices are Most Suitable for Cardiac Differentiation. […] This lack of long-term adhesion during the differentiation was present irrelevant of vitronectin peptide concentrations and could be resolved by passaging and replating onto new matrix, yet we sought to find a more suitable solution. We assessed culture of hiPSC in E8 medium and subsequent differentiation on other defined matrices: recombinant human (rH) Ecadherin, rH vitronectin, rH laminin-521, truncated rH laminin-511, human fibronectin, or a fibronectin mimetic (FIG. 2a). Chemically defined long-term maintenance of pluripotency in E8 was successful on all surfaces except those based on fibronectin. […] Cells cultured on each of the five successful matrices (>6 passages) were then differentiated in CDM3. Although all matrices produced efficient differentiations (FIG. 2b), the laminin matrices were both successful for maintaining long-term adhesion during chemically defined cardiac differentiation (FIG. 2d), but prohibitively expensive for large-scale application. […]
Growth assays. To assess cell growth, cells were counted using a Countess automated cell counter (Life Technologies). […] Cumulative population doublings was calculated using the formula n=3.32 [log10(N/N0)].
Matrices. […] Matrices were assessed on both 6-well polystyrene tissue culture plates and untreated plates (both from Greiner). […]

## OCC(O)CS (stereo not drawn) [1-thioglycerol]
[1]; addition d0-d2, PVA 0.4%
  effect of addition on differentiation: severely limited rather than enhanced differentiation
[2]; d) addition of components from the other media formulae of Table 5
  9 components with the addition of: cardiac differentiation score: 0

## O=C1O[C@H]([C@@H](O)CO)C(O)=C1OP(=O)(O)O [AA 2-P, L-ascorbic acid 2-phosphate]
[3]; medium without AA 2-P (FIG. 10a)
  effect of omitting the component from the differentiation medium: total cell death
[2]; d) component at 10 x concentration
  9 components with the addition of: cardiac differentiation score: +++ (>75% contraction)
[2]; e) third medium with increased concentrations, each component subtracted
  9 components (with 4 at 10x) subtracting: cardiac differentiation score: 0
[2]; f) fourth 6-component medium, each component subtracted
  6 components subtracting: cardiac differentiation score: 0
[2]; g) final 3-component medium (RPMI 1640, BSA, 10 x L-ascorbic acid 2-phosphate), component subtracted
  2 components subtracting: cardiac differentiation score: 0

## O=C1Nc2cc(Br)ccc2/C1=C1/Nc2ccccc2/C1=N\O [BIO, 6-bromo-3-[(3E)-1,3-dihydro-3-(hydroxyimino)-2H-indol-2-ylidene]-1,3-dihydro-(3Z)-2H-indol-2-one]
[3]
  cell death / toxicity of GSK3B inhibitors: did not cause total cell death
  inducing cardiac differentiation (GSK3B inhibitors): successful at inducing any suitable cardiac differentiation
[1]
  inducing cardiac differentiation (GSK-3β inhibitors, Wnt signaling agonists): successful at inducing cardiac differentiation

## Cc1cc(-c2ccc(CC(=O)Nc3ccc(-c4cccnc4)cc3)cc2)ccn1 [C59]
[3]
  timing of Wnt signaling modulation for cardiac differentiation efficiency: optimal
[1]
  Wnt signaling antagonist effective for cardiac differentiation: effective

## Cc1cnc(-c2cnc(NCCNc3ccc(C#N)cn3)nc2-c2ccc(Cl)cc2Cl)[nH]1 [CHIR-99021, 6-[[2-[[4-(2,4-dichlorophenyl)-5-(5-methyl-1H-imidazol-2-yl)-2-pyrimidinyl]amino]ethyl]amino]-3-pyridinecarbonitrile]
[3]
  timing of Wnt signaling modulation for cardiac differentiation efficiency: optimal
  cell death / toxicity of GSK3B inhibitors: did not cause total cell death
  inducing cardiac differentiation (GSK3B inhibitors): successful at inducing any suitable cardiac differentiation
[1]
  inducing cardiac differentiation (GSK-3β inhibitors, Wnt signaling agonists): successful at inducing cardiac differentiation

## O=c1[nH]c(-c2ccc(C(F)(F)F)cc2)nc2c1CSCC2 [XAV939, 3,5,7,8-Tetrahydro-2-[4-(trifluoromethyl)phenyl]-4H-thiopyrano[4,3-d]pyrimidin-4-one]
[1]
  Wnt signaling antagonist effective for cardiac differentiation: effective

## recombinant laminin-521: recombinant human laminin-521 matrix
[4]
  support of pluripotent hiPSC growth and long-term adherence of CMs: most successful
